This is an account of results in US8946436B2, “Oxazolidinone compounds and their uses in preparation of antibiotics” (Sichuan Gooddoctor Pharmaceutical Group Co., Ltd., priority 2011, dated 2015).

Values after ≈ are worked out from the molar mass of the structure shown. Like-named read-outs stand apart in the source and are kept apart here.

Holding throughout (type): cell-based
The test system of one assay is L-02. Briefly: Cytotoxicity experiment (MTT), L-02. Conditions: L-02 normal cells. The procedure: (§1) (1) Inoculating cells: Experimental cells in the growth of logarithmic phase were collected and suspended. The cell concentration of the suspension was adjusted so that they could be inoculated into the wells of 96-well micro plate at a density between 10^3-10^4 cells per well (200 μl per well). (2) Culturing cells: The cells were cultured at normal conditions for 3 days and then exposed to 50 uM compounds for test. (3) Coloring reaction: At 24 h, 48 h and 72 h after the cells being exposed to the compounds for test, 200 μl culture medium containing 20 μl MTT solution (5 mg/ml) was added into each well, and the well was further incubated at 37° C. for 2 hours to terminate the incubation. After the incubation, the supernatants were removed from the wells. In the event there were suspended cells in the wells, centrifugation should be performed before removal of supernatant from the wells. After the removal, 150 μl DMSO was added to each well and mixed thoroughly by agitation for 10 mins to fully dissolve crystals. (4) Ascertainment of colorimetry: The absorbance value at 490 nm of each well was determined by Enzyme-linked immunosorbent Monitor. The growth curve of the experimental cells was plotted by taking time as x-coordinate and absorbance value as y-coordinate. In addition, an inhibition ratio could be calculated in accordance with the following formula: Inhibition ratio=(absorbance value of control group-absorbance value of administering group)/absorbance value of control group×100%.

The next assay deals with HEK-293. Briefly: Cytotoxicity experiment (MTT), HEK-293. To be noted: HEK-293 normal cells. As for the experimental part: as §1
The next assay has as its system E. faecalis. Briefly: In vitro antibacterial activity (MIC), E. faecalis. Conditions: E. faecalis (7 strains). The procedure: (§2) The test strain was inoculated into the liquid medium and cultured at 37° C. for 16-18 h. The culture liquid and MH medium were put into two blank wells of a 96-well plate, respectively. Then, the absorptions thereof were measured by a Microplate reader. The difference between the absorption values of the culture liquid and MH medium is the adsorption of the bacteria. The concentration of the culture liquid can be calculated according to the formula of 1OD=50 million CFU/mL. The culture liquid was diluted with the MH bouillon culture medium to 5000 CFU/mL for further use.
(§3) Compounds 12a, 13 and 14 were dissolved in DMSO to 1 mg/mL, and then filtered with a 0.22 μm filter to obtain the compound solutions. And then they were gradually diluted to a desired concentration (10× final concentration) with the liquid medium, so as to obtain a series of dilutions. The final concentration grade of the dilutions of each tested compound consists of 14 concentrations, which includes: 0.03125 μg/mL, […], 0.125 μg/mL, 0.25 μg/mL, […], 1 μg/mL, 2 μg/mL, 4 μg/mL, 8 μg/mL, 16 μg/mL, 32 μg/mL, 64 μg/mL, 128 μg/mL and 256 μg/mL.
(§4) 10 μL of each of the compound dilutions above was added into a well of a 96-well plate. 90 μL of the culture liquid (5000 CFU/mL) was added into each of the wells, respectively, mixed with the dilutions to render the tested compound concentration to the final concentration. The resulted mixture was incubated at 37° C. for 16-18 h, and then the OD630 thereof was measured. A culture liquid free of the tested compounds is used as a blank control, and three parallel tests with the same concentration of each compound were performed. The minimum inhibitory concentration (MIC) of each compound on the standard strain of Staphylococcus Aureus and other test strains was determined. Specifically, among the culture liquid contained in the wells of the micro-plate, the first three lowest concentrations under which growth of the test strains could be observed were chose for further evaluation of the MIC. A culture liquid free of tested compounds was used as a blank control. Each of the culture liquids was homogenized independently, and then was diluted with a sterile saline. Each of the diluted culture liquids was plated onto a MH bouillon plate and incubated at 37° C. for 20 h in incubator. After the incubation, the number of the colonies on each plate was counted. As compared with the blank control group, the lowest concentration of each of the test compound groups, at which 80% reduction in the colony number of the strains was achieved, was recorded as the MIC.

The test system of a further assay is S. agalactiae. Put plainly: In vitro antibacterial activity (MIC), S. agalactiae. Conditions: S. agalactiae (5 strains). As for the experimental part:
as §2, §3, §4

Assay [1] has as its system Enterococcus faecium-resistant vancomycin. Put plainly: MIC against clinically isolated strains, vancomycin resistant Enterococcus faecium. To be noted: Enterococcus faecium-resistant vancomycin (12 strains). The source says: (§5) Standard strains, including Staphylococcus aureus ATCC29213, S. pneumoniae ATCC49619, E. faecalis ATCC29212, are all available from the American Type Culture Collection.
(§6) Clinically isolated strains: There are total 120 clinical strains of gram-positive bacterium including: 37 strains of Staphylococcus aureus (consisting of 14 strains of methicillin sensitive Staphylococcus aureus MSSA and 23 strains of methicillin resistant Staphylococcus aureus MRSA); 27 strains of Streptococcus pneumoniae (consisting of 13 strains of penicillin sensitive Streptococcus pneumoniae PSSP and 14 strains of penicillin insensitive or resistant Streptococcus pneumoniae PISP+PRSP); 15 strains of Streptococcus pyogenes; 17 strains of Streptococcus agalactiae; 24 stains of Enterococcus faecium (consisting of 12 strains of vancomycin sensitive Enterococcus faecium and 12 strains of vancomycin resistant Enterococcus faecium).
(§7) (2) Tested compounds: Compound 13f was prepared by the methods above, with potency of over 98%; Linezolid was purchased from Pfizer, with potency of 100%.
(§8) Staphylococcus and Enterococcus faecium were incubated in Mueller-Hinton agar medium (MHA medium) at 35° C. for 16-20 h; S. pneumoniae was incubated in Cation-Adjusted Mueller-Hinton Broth medium (CAMHB medium) supplemented with 2.5-5.5% (v/v) lysed horse blood (LHB) at 35° C. for 20-24 h; and Streptococcus were incubated in sheep blood-containing medium (prepared by addition of 5% defibrinated sheep blood into MHA media) at 35° C. for 20-24 h in 5% CO2 environment (CO2 incubator). Before test of the compound activity, each stock of the bacteria strains was activated and colonized in the following manner: the stock was transferred and cultured in a liquid culture medium, the culture liquid was smeared onto an agar plate with an inoculating loop to obtain bacterial colonies on the plate after incubation, and then a colony of the bacteria was chose to be suspended into the liquid culture medium for performing the test of compound activity. As a result, fresh bacteria cells were applied to the test. The standard strains were used as sensitive bacterium to control the quality of the experiments, and a plate or tube containing no antibacterial compounds is used as a blank control for the growth of test strains.
(§9) The minimal inhibitory concentration (MIC) of the test compounds on the strains of Streptococcus pneumoniae was determined by a standard broth macrodilution method, while the MIC of the test compounds on the other bacteria stains was determined by standard agar double dilution methods. The concentration of the test compounds was in the range of 32 mg/L-0.016 mg/L. The bacterial suspensions to be tested were inoculated by a multipoint inoculator, and the inoculation amount at each point is 10^4 CFU. The MIC of the test compound to each strain of the bacteria was determined.

Assay [2] relates to Enterococcus faecium-sensitive vancomycin. Briefly: MIC against clinically isolated strains, vancomycin sensitive Enterococcus faecium. Conditions: Enterococcus faecium-sensitive vancomycin (12 strains).
Text: as §5, §6, §7, §8, §9

In general, MIC refers to the least concentration at which growth counts as inhibited. For the molecule `CC(=O)NC[C@H]1CN(c2ccc(-n3cc(-c4ccccn4)cn3)c(F)c2)C(=O)O1` [Compound 13f, (S)-N-((3-(3-fluoro-4-(4-(pyridin-2-yl)-1H-pyrazol-1-yl)phenyl)-2-oxooxazolidin-5-yl)methyl)acetamide], the cytotoxicity at 50 µM in the assay with L-02 (Homo sapiens, L02, 48 h, read-out: Inhibition ratio) is 2.74%; in the assay on HEK-293 (Homo sapiens, HEK293, 48 h, read-out: Inhibition ratio), 2.7%. The MIC was in the range of 0.5 to 2 µg/mL (≈ 1.26 to 5.06 µM) in the assay with E. faecalis (Enterococcus faecalis, read-out: MIC) and 0.25 to 2 µg/mL (≈ 0.632 to 5.06 µM) with S. agalactiae (Streptococcus agalactiae, read-out: MIC). In addition, the MICmode in assay [1] and in assay [2] was 1 µg/L in each case. Further, the MICrange in assay [1] and in assay [2] was 1 to 2 µg/L in each case.

One may read the MIC50 as an inhibitory concentration at the 50% level, which refers to growth in some studies and to a panel of isolates in others. High values mean lower susceptibility, low ones higher susceptibility. A word on the MIC90: it is an inhibitory concentration at the 90% level, which refers to growth in some studies and to a panel of isolates in others. A low value points to higher susceptibility. On to `CC(=O)NC[C@H]1CN(c2ccc(N3CCOCC3)c(F)c2)C(=O)O1` [Linezolid, reference compound], for which the Inhibition ratio with L-02 (50 uM, 48 h) is above 50%. Also, the Inhibition ratio in the assay with HEK-293 (50 uM, 48 h) is above 50%. Moreover, in the assay on E. faecalis, the minimal inhibitory concentration (MIC) was 4 to 32 µg/mL. Besides, in the assay with S. agalactiae, the minimal inhibitory concentration (MIC) lay in the range of 4 to 32 µg/mL. For the same molecule, in assay [1], the MIC50 was found to be 0.001 µg/mL (≈ 0.00296 µM), the MIC90 was 0.001 µg/mL (≈ 0.00296 µM), the MICmode is 1 µg/L and the MICrange was in the range of 1 to 2 µg/L. Further, in assay [2], the MIC50 turned out to be 0.001 µg/mL (≈ 0.00296 µM), the MIC90 turned out to be 0.001 µg/mL (≈ 0.00296 µM), the MICmode was determined as 1 µg/L and the MICrange fell in the range of 1 to 2 µg/L.
